Data published in US20250230171A1 (MOMA Therapeutics, Inc., priority 2023, published 2025).
pIC50: −log10 of the molar value. Like-named read-outs stand apart in the source and are kept apart here.

Assays:
[1] = biological target: biotinylated Avi-POLθ[2-894] (Homo sapiens (Human), UniProt O75417); test: POLθ ATPase assay (ADP-Glo); conditions: n=2, read-out: Biochemical ATPase ADPGlo IC50
DLD1 BRCA2 (−/−) cells = test: 7-day cell viability assay (CellTiter-Glo), DLD1 BRCA2 (−/−); format: cell-based, human; conditions: Homo sapiens, DLD-1, 168 h, n=2, read-out: Viability IC50 (uM) DLD1 BRCA2 null
Outline: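 7-day growth assay in DLD1 cells with or without BRCA2; seeding densities chosen to keep log-linear growth. Compound: 10 uM top, 3-fold, 9 points. Endpoint: CTG ATP luminescence at RT.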

DLD1 WT cells = test: 7-day cell viability assay (CellTiter-Glo), DLD1 parental (WT); format: cell-based, human; conditions: Homo sapiens, DLD-1, 168 h, n=2

Chain of biotinylated Avi-POLθ[2-894] (O75417 2-894): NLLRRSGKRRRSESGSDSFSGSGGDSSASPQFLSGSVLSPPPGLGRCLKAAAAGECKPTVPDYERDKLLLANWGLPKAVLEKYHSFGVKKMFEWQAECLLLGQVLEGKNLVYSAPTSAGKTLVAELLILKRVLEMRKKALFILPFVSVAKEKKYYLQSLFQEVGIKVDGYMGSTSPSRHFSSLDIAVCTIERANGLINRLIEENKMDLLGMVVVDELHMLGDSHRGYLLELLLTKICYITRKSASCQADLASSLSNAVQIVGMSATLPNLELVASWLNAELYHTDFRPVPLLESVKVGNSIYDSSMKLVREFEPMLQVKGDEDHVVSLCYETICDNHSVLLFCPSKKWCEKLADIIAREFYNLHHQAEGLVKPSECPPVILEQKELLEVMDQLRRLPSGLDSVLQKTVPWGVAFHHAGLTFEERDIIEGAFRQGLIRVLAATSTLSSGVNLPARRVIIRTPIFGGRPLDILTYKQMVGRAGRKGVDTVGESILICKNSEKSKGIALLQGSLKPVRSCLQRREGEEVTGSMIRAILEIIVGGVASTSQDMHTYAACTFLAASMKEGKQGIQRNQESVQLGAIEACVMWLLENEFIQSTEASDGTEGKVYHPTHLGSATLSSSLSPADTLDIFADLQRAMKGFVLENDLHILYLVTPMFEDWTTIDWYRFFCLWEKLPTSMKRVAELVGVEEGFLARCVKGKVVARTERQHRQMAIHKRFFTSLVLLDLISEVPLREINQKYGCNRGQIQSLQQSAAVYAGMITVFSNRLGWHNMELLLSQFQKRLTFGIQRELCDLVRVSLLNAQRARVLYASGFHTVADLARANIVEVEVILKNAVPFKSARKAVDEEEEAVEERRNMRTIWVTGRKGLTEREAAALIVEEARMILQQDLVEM

COc1cnc(Cl)cc1-c1cc(C)ncc1C(=O)Nc1nc2c(s1)CN(C(=O)C1CCCC(OC)C1)C2 (racemic) [Example 128, (Racemic) 2′-chloro-5′-methoxy-N-(5-(3-methoxycyclohexane-1-carbonyl)-5,6-dihydro-4H-pyrrolo[3,4-d]thiazol-2-yl)-6-methyl-[4,4′-bipyridine]-3-carboxamide]
pIC50 [1]: 7.82 to 9.00 | IC50 (DLD1 BRCA2 (−/−) cells; 7-day viability): 0.001 to 0.1 µM | IC50 (DLD1 WT cells; 7-day viability): ≥ 10 µM

COc1cnc(Cl)cc1-c1cc(C)ncc1C(=O)Nc1nc2c(s1)CN(C(=O)c1nn(C)cc1Cl)C2 (racemic) [Example 152, (Racemic)-4-(5-Cyano-2-methoxyphenyl)-6-methyl-N-(6-(phenylamino)-4,5,6,7-tetrahydrobenzo[d]thizaol-2-yl)nicotinamide]
pIC50 [1]: 7.82 to 9.00 | IC50 (DLD1 BRCA2 (−/−) cells; 7-day viability): 0.1 to 0.25 µM | IC50 (DLD1 WT cells; 7-day viability): ≥ 10 µM

COc1ccc(C#N)cc1-c1cc(C)ncc1C(=O)Nc1nc2c(s1)CN(C(=O)C1CC(OC(C)C)C1)C2 (racemic) [Example 166]
pIC50 [1]: 7.82 to 9.00 | IC50 (DLD1 BRCA2 (−/−) cells; 7-day viability): 0.25 to 0.5 µM | IC50 (DLD1 WT cells; 7-day viability): ≥ 10 µM

COc1cnc(Cl)cc1-c1cc(C)ncc1C(=O)Nc1nc2c(s1)CN(C(=O)C1CCC(OC(F)(F)F)C1)C2 (racemic) [Example 397, (Racemic) 2′-chloro-5′-methoxy-6-methyl-N-(5-(3-(trifluoromethoxy)cyclopentane-1-carbonyl)-5,6-dihydro-4H-pyrrolo[3,4-d]thiazol-2-yl)-[4,4′-bipyridine]-3-carboxamide]
pIC50 ([1]; POLθ ATPase, ADP-Glo): 7.82 to 9.00 | IC50 (DLD1 BRCA2 (−/−) cells; 7-day CellTiter-Glo): 0.001 to 0.1 µM | IC50 (DLD1 WT cells; 7-day CellTiter-Glo): ≥ 10 µM

COc1cnc(Cl)cc1-c1cc(C)ncc1C(=O)Nc1nc2c(s1)CN(C(=O)c1ccc(C(F)(F)F)nc1OC)[C@H]2C (single isomer, unassigned) [Example 1041, (S or R)-2′-chloro-5′-methoxy-N-(5-(2-methoxy-6-(trifluoromethyl)nicotinoyl)-4-methyl-5,6-dihydro-4H-pyrrolo[3,4-d]thiazol-2-yl)-6-methyl-[4,4′-bipyridine]-3-carboxamide]
pIC50 ([1]; POLθ ATPase, ADP-Glo): 7.82 to 9.00 | IC50 (DLD1 BRCA2 (−/−) cells; 7-day CellTiter-Glo): 0.001 to 0.1 µM | IC50 (DLD1 WT cells; 7-day CellTiter-Glo): ≥ 10 µM

COc1cnc(Cl)cc1-c1cc(C)ncc1C(=O)Nc1nc2c(s1)C(C)N(C(=O)c1ccc(C(F)(F)F)nc1OC)C2 (single isomer, unassigned) [Example 1046, (R or S)-2′-chloro-5′-methoxy-N-(5-(2-methoxy-6-(trifluoromethyl)nicotinoyl)-6-methyl-5,6-dihydro-4H-pyrrolo[3,4-d]thiazol-2-yl)-6-methyl-[4,4′-bipyridine]-3-carboxamide]
pIC50 ([1]; POLθ ATPase, ADP-Glo): 7.82 to 9.00 | IC50 (DLD1 BRCA2 (−/−) cells; 7-day CellTiter-Glo): 0.001 to 0.1 µM | IC50 (DLD1 WT cells; 7-day CellTiter-Glo): ≥ 10 µM

COc1cnc(Cl)cc1-c1cc(C)ncc1C(=O)Nc1nc2c(s1)CN(C(=O)C1CCC(OC(F)F)CC1)C2 (stereo not drawn) [Example 2, (Cis and Trans) 2′-chloro-N-(5-(4-(difluoromethoxy)cyclohexane-1-carbonyl)-5,6-dihydro-4H-pyrrolo[3,4-d]thiazol-2-yl)-5′-methoxy-6-methyl-[4,4′-bipyridine]-3-carboxamide]
pIC50 [1]: 7.82 to 9.00 | IC50 (DLD1 BRCA2 (−/−) cells; 7-day viability): 0.001 to 0.1 µM | IC50 (DLD1 WT cells; 7-day viability): ≥ 10 µM

COc1cnc(Cl)cc1-c1cc(C)ncc1C(=O)Nc1nc2c(s1)CN(C(=O)[C@@H]1C[C@H]1C(F)F)C2 [Example 3, 2′-chloro-N-(5-((1R,2R)-2-(difluoromethyl)cyclopropane-1-carbonyl)-5,6-dihydro-4H-pyrrolo[3,4-d]thiazol-2-yl)-5′-methoxy-6-methyl-[4,4′-bipyridine]-3-carboxamide]
pIC50 [1]: 7.82 to 9.00 | IC50 (DLD1 BRCA2 (−/−) cells; 7-day viability): 0.001 to 0.1 µM | IC50 (DLD1 WT cells; 7-day viability): 2 to 5 µM

COc1cnc(Cl)cc1-c1cc(C)ncc1C(=O)Nc1nc2c(s1)CN(C(=O)c1cnn3c1CCC3)C2 [Example 4, 2′-chloro-N-(5-(5,6-dihydro-4H-pyrrolo[1,2-b]pyrazole-3-carbonyl)-5,6-dihydro-4H-pyrrolo[3,4-d]thiazol-2-yl)-5′-methoxy-6-methyl-[4,4′-bipyridine]-3-carboxamide]
pIC50 [1]: 7.82 to 9.00 | IC50 (DLD1 BRCA2 (−/−) cells; 7-day viability): 0.001 to 0.1 µM | IC50 (DLD1 WT cells; 7-day viability): 0.001 to 0.5 µM

COc1cnc(Cl)cc1-c1cc(C)ncc1C(=O)Nc1nc2c(s1)CN(C(=O)c1c(C)nn(C)c1Cl)C2 [Example 5, 2′-chloro-N-(5-(5-chloro-1,3-dimethyl-1H-pyrazole-4-carbonyl)-5,6-dihydro-4H-pyrrolo[3,4-d]thiazol-2-yl)-5′-methoxy-6-methyl-[4,4′-bipyridine]-3-carboxamide]
pIC50 [1]: 7.82 to 9.00 | IC50 (DLD1 BRCA2 (−/−) cells; 7-day viability): 0.001 to 0.1 µM | IC50 (DLD1 WT cells; 7-day viability): ≥ 10 µM

COc1cnc(Cl)cc1-c1cc(C)ncc1C(=O)Nc1nc2c(s1)CN(C(=O)c1c(C)nn(C)c1C(F)F)C2 [Example 6, 2′-chloro-N-(5-(5-(difluoromethyl)-1,3-dimethyl-1H-pyrazole-4-carbonyl)-5,6-dihydro-4H-pyrrolo[3,4-d]thiazol-2-yl)-5′-methoxy-6-methyl-[4,4′-bipyridine]-3-carboxamide]
pIC50 [1]: 7.82 to 9.00 | IC50 (DLD1 BRCA2 (−/−) cells; 7-day viability): 0.001 to 0.1 µM | IC50 (DLD1 WT cells; 7-day viability): ≥ 10 µM

COc1cnc(Cl)cc1-c1cc(C)ncc1C(=O)Nc1nc2c(s1)CN(C(=O)c1cccc(Cl)n1)C2 [Example 7, 2′-chloro-N-(5-(6-chloropicolinoyl)-5,6-dihydro-4H-pyrrolo[3,4-d]thiazol-2-yl)-5′-methoxy-6-methyl-[4,4′-bipyridine]-3-carboxamide]
pIC50 [1]: 7.82 to 9.00 | IC50 (DLD1 BRCA2 (−/−) cells; 7-day viability): 0.001 to 0.1 µM | IC50 (DLD1 WT cells; 7-day viability): 2 to 5 µM

COc1cnc(Cl)cc1-c1cc(C)ncc1C(=O)Nc1nc2c(s1)CN(C(=O)C1CC3(CCC3)C1)C2 [Example 8, 2′-chloro-5′-methoxy-6-methyl-N-(5-(spiro[3.3]heptane-2-carbonyl)-5,6-dihydro-4H-pyrrolo[3,4-d]thiazol-2-yl)-[4,4′-bipyridine]-3-carboxamide]
pIC50 [1]: 7.82 to 9.00 | IC50 (DLD1 BRCA2 (−/−) cells; 7-day viability): 0.001 to 0.1 µM | IC50 (DLD1 WT cells; 7-day viability): 5 to 10 µM

COc1cnc(Cl)cc1-c1cc(C)ncc1C(=O)Nc1nc2c(s1)CN(C(=O)c1ccc(C(F)F)cn1)C2 [Example 9, 2′-chloro-N-(5-(5-(difluoromethyl)picolinoyl)-5,6-dihydro-4H-pyrrolo[3,4-d]thiazol-2-yl)-5′-methoxy-6-methyl-[4,4′-bipyridine]-3-carboxamide]
pIC50 [1]: 7.82 to 9.00 | IC50 (DLD1 BRCA2 (−/−) cells; 7-day viability): 0.001 to 0.1 µM | IC50 (DLD1 WT cells; 7-day viability): ≥ 10 µM

COc1cnc(Cl)cc1-c1cc(C)ncc1C(=O)Nc1nc2c(s1)CN(C(=O)[C@H]1C[C@@H](OC(F)F)C1)C2 [Example 10, 2′-chloro-N-(5-((1s,3s)-3-(difluoromethoxy)cyclobutane-1-carbonyl)-5,6-dihydro-4H-pyrrolo[3,4-d]thiazol-2-yl)-5′-methoxy-6-methyl-[4,4′-bipyridine]-3-carboxamide]
pIC50 [1]: 7.82 to 9.00 | IC50 (DLD1 BRCA2 (−/−) cells; 7-day viability): 0.001 to 0.1 µM | IC50 (DLD1 WT cells; 7-day viability): ≥ 10 µM

COc1cnc(Cl)cc1-c1cc(C)ncc1C(=O)Nc1nc2c(s1)CN(C(=O)c1ccc(Cl)cn1)C2 [Example 11, 2′-chloro-N-(5-(5-chloropicolinoyl)-5,6-dihydro-4H-pyrrolo[3,4-d]thiazol-2-yl)-5′-methoxy-6-methyl-[4,4′-bipyridine]-3-carboxamide]
pIC50 [1]: 7.82 to 9.00 | IC50 (DLD1 BRCA2 (−/−) cells; 7-day viability): 0.001 to 0.1 µM | IC50 (DLD1 WT cells; 7-day viability): 2 to 5 µM

COc1cnc(Cl)cc1-c1cc(C)ncc1C(=O)Nc1nc2c(s1)CN(C(=O)c1ccc(C(F)F)nc1)C2 [Example 12, 2′-chloro-N-(5-(6-(difluoromethyl)nicotinoyl)-5,6-dihydro-4H-pyrrolo[3,4-d]thiazol-2-yl)-5′-methoxy-6-methyl-[4,4′-bipyridine]-3-carboxamide]
pIC50 [1]: 7.82 to 9.00 | IC50 (DLD1 BRCA2 (−/−) cells; 7-day viability): 0.001 to 0.1 µM | IC50 (DLD1 WT cells; 7-day viability): ≥ 10 µM

COc1cnc(Cl)cc1-c1cc(C)ncc1C(=O)Nc1nc2c(s1)CN(C(=O)c1ccc(Cl)nc1)C2 [Example 13, 2′-chloro-N-(5-(6-chloronicotinoyl)-5,6-dihydro-4H-pyrrolo[3,4-d]thiazol-2-yl)-5′-methoxy-6-methyl-[4,4′-bipyridine]-3-carboxamide]
pIC50 [1]: 7.82 to 9.00 | IC50 (DLD1 BRCA2 (−/−) cells; 7-day viability): 0.001 to 0.1 µM | IC50 (DLD1 WT cells; 7-day viability): ≥ 10 µM

COc1cnc(Cl)cc1-c1cc(C)ncc1C(=O)Nc1nc2c(s1)CN(C(=O)c1ccc(C(F)(F)F)nn1)C2 [Example 14, 2′-chloro-5′-methoxy-6-methyl-N-(5-(6-(trifluoromethyl)pyridazine-3-carbonyl)-5,6-dihydro-4H-pyrrolo[3,4-d]thiazol-2-yl)-[4,4′-bipyridine]-3-carboxamide]
pIC50 [1]: 7.82 to 9.00 | IC50 (DLD1 BRCA2 (−/−) cells; 7-day viability): 0.001 to 0.1 µM | IC50 (DLD1 WT cells; 7-day viability): ≥ 10 µM

COc1cnc(Cl)cc1-c1cc(C)ncc1C(=O)Nc1nc2c(s1)CN(C(=O)c1ccc(C(F)(F)F)nc1OC)C2 [Example 15, 2′-chloro-5′-methoxy-N-(5-(2-methoxy-6-(trifluoromethyl)nicotinoyl)-5,6-dihydro-4H-pyrrolo[3,4-d]thiazol-2-yl)-6-methyl-[4,4′-bipyridine]-3-carboxamide]
pIC50 [1]: 7.82 to 9.00 | IC50 (DLD1 BRCA2 (−/−) cells; 7-day viability): 0.001 to 0.1 µM | IC50 (DLD1 WT cells; 7-day viability): 5 to 10 µM

COc1cnc(Cl)cc1-c1cc(C)ncc1C(=O)Nc1nc2c(s1)CN(C(=O)c1ncc(C(F)(F)F)cc1Cl)C2 [Example 16, 2′-chloro-N-(5-(3-chloro-5-(trifluoromethyl)picolinoyl)-5,6-dihydro-4H-pyrrolo[3,4-d]thiazol-2-yl)-5′-methoxy-6-methyl-[4,4′-bipyridine]-3-carboxamide]
pIC50 [1]: 7.82 to 9.00 | IC50 (DLD1 BRCA2 (−/−) cells; 7-day viability): 0.001 to 0.1 µM | IC50 (DLD1 WT cells; 7-day viability): ≥ 10 µM

COc1cnc(Cl)cc1-c1cc(C)ncc1C(=O)Nc1nc2c(s1)CN(C(=O)c1cc(C)n(C)n1)C2 [Example 17, 2′-chloro-N-(5-(1,5-dimethyl-1H-pyrazole-3-carbonyl)-5,6-dihydro-4H-pyrrolo[3,4-d]thiazol-2-yl)-5′-methoxy-6-methyl-[4,4′-bipyridine]-3-carboxamide]
pIC50 [1]: 7.82 to 9.00 | IC50 (DLD1 BRCA2 (−/−) cells; 7-day viability): 0.001 to 0.1 µM | IC50 (DLD1 WT cells; 7-day viability): 0.001 to 0.5 µM
